From patent US10106542B2, “Substituted 6,7-dihydropyrazolo[1,5-a]pyrazines as negative allosteric modulators of mGluR2 receptors” (Janssen Pharmaceutica NV, priority 2013, dated 2018)

Key:
human mGlu2 receptor = target: T1, human mGlu2 receptor (Homo sapiens, UniProt Q14416); assay: [35S]GTPγS binding assay (mGluR2 negative allosteric modulation); assay type: biochemical; settings: for IC50: membranes from CHO cells transfected with human mGlu2 receptor, glutamate 60 μM, pIC50 = −log IC50 (M), read-out: GTPγS - hmGluR2 anGT pIC50 (converted); for Emax: relative maximal effect: maximal % inhibition relative to the control glutamate response, read-out: GTPγS - hmGluR2 anGT Emax
T1 construct: expressed in transfected cells; host or cells: CHO cells (membrane preparation)
Method in brief: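 Membranes from butyrate-stimulated CHO cells expressing human mGlu2; 7 μg protein in HEPES pH 7.4, 100 mM NaCl, 3 mM MgCl2, 10 μM GDP, 10 μg/ml saponin. Compound tested against EC80-equivalent glutamate; 0.1 nM [35S]GTPγS, 30 min, 30 °C; filtration, scintillation counting. Data as % of control glutamate response.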

rats = assay: Reversal of the effect of the mGluR2 PAM JNJ-42153605 on scopolamine-induced hyperlocomotion; assay type: in vivo; settings: Rattus norvegicus, 1 h, test compound 60 min before recording, criterion total distance >1500 cm
Experimental: 2) Reversal of the Effect of the mGluR2 PAM JNJ-42153605 on Scopolamine-Induced Hyperlocomotion Apparatus
Motor activity was measured in microprocessor-based motor activity arenas (closed gray PVC cylinders with a height of 39 cm and a diameter of 31 cm). Each arena was placed on an infrared LED (8×8 LEDs) lit box (white PVC squared box; 40×40 cm^2; height 12.5 cm. An infrared-sensitive tube camera and a white light source were mounted to the ceiling above the observation chamber to track the animal. The total distance traveled (cm) was recorded and analyzed using the Noldus Ethovision XT Video Tracking System (Version 7.0.418; Noldus, Wageningen, The Netherlands). The intensity of the light within the activity cages (measured in the centre at the level of the floor) ranged between 4 and 8 LUX.
The rats were pretreated with test compound or vehicle at 60 min before the start of the activity recordings and placed into individual cages. The rats were challenged with JNJ-42153605 (3-(cyclopropylmethyl)-7-(4-phenylpiperidin-1-yl)-8-(trifluoromethyl)[1,2,4]triazolo[4,3-a]pyridine; WO2010/130424; Cid et al. J. Med. Chem. 2012, 55, 8770-8789) (20 mg/kg, i.v.) 30 min before the start of the activity recording combined with scopolamine (0.16 mg/kg, i.v.) just before the start of the activity measurements Immediately after the injection of scopolamine, the rats were placed into the activity monitors and total distance travelled over the first 30 min was measured.
Animals receiving the combination of JNJ-42153605 and scopolamine (n=433) almost always travelled a distance of less than 1500 cm (<1500 cm) (only 2.5% of the control rats travelled a distance of more than 1500 cm (>1500 cm)). On the other hand, animals challenged with scopolamine alone (n=215) always travelled a total distance of more than 1500 cm (>1500 cm) and almost always (in 95.8% of the rats) a distance of more than 4400 cm (>4400 cm). […] For reversal of the inhibitory effect of JNJ-42153605 on the scopolamine-induced hyperlocomotion, two all-or-none criteria were adopted: (1) reversal: total distance >1500 cm; (2) normalization: total distance >4400 cm.

T1 sequence (Q14416 19-872): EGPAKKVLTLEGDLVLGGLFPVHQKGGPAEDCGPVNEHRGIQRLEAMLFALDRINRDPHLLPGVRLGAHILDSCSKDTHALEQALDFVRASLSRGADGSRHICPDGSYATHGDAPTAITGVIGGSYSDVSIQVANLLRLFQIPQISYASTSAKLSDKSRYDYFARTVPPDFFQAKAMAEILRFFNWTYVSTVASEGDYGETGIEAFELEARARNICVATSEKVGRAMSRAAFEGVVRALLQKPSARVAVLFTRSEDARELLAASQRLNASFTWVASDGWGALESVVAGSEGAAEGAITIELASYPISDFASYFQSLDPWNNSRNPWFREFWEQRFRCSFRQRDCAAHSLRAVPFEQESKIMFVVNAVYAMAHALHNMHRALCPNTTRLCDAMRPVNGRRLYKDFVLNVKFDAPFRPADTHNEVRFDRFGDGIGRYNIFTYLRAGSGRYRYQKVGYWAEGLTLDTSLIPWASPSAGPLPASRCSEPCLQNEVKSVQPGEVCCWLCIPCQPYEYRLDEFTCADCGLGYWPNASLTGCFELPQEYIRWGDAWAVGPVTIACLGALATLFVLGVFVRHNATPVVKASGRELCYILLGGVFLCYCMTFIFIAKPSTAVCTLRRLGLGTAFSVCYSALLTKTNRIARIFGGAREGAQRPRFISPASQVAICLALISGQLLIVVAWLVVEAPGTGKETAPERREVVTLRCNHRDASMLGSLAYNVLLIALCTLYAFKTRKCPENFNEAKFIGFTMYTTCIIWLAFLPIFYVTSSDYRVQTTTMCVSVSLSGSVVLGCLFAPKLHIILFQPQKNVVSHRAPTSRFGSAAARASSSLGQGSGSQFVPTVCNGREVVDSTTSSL

| IC50 (human mGlu2 receptor) | Emax (human mGlu2 receptor) | melting point | Compound | ED50 (rats; Route PO) | ED50 (rats; Route SC) |
| --- | --- | --- | --- | --- | --- |
| 6.92e-08 M | 105% | 137 °C | COc1cc(N2C[C@H](C)n3ncc(-c4ccnc(C)c4)c3C2=O)ccc1Cl [compound 19] | ≥ 10 mg/kg | – |
| 1e-08 M | 105% | 105.4 °C | Cc1cc(-c2cnn3c2C(=O)N(c2ccc(OC(F)(F)F)cc2)C[C@@H]3C)ccn1 [compound 152] | 1.99 mg/kg | – |
| 3.63e-09 M | 108% | – | CCNc1cc(-c2cnn3c2C(=O)N(c2ccc(C(F)(F)F)c(C)c2)C[C@@H]3C)ccn1 [compound 256] | ≥ 2.5 mg/kg | – |
| 5.25e-08 M | 102% | 98.5 °C | CCOc1cc(N2C[C@H](C)n3ncc(-c4ccnc(C)c4)c3C2=O)ccc1Cl [compound 18] | ≥ 10 mg/kg | – |
| 8.32e-09 M | 107% | 129.8 °C | C[C@H]1CN(c2ccc(C(F)(F)F)cc2)C(=O)c2c(-c3ccnc(N4CCC4)c3)cnn21 [compound 102] | ≥ 2.5 mg/kg | – |
| 2.4e-08 M | 104% | – | Cc1cc(-c2cnn3c2C(=O)N(c2ccc(C(F)(F)F)cc2)C[C@@H]3C)cc(C)n1 [compound 14] | 5 mg/kg | – |
| 6.31e-09 M | 116% | – | CNc1cc(-c2cnn3c2C(=O)N(c2ccc(C(F)(F)F)c(C)c2)C[C@@H]3C)ccn1 [compound 251] | > 0.63 mg/kg | – |
| 1.95e-08 M | 104% | – | COc1cc(N2C[C@H](C)n3ncc(-c4ccnc(C)c4)c3C2=O)ccc1C(F)(F)F [compound 12] | 1.25 mg/kg | – |
| 5.13e-08 M | 102% | – | Cc1cc(-c2cnn3c2C(=O)N(c2cccc(Cl)c2)C[C@@H]3C)ccn1 [compound 16] | – | ≥ 10 mg/kg |
| 1.45e-08 M | 108% | 126.4 °C | C[C@H]1CN(c2ccc(C(F)(F)F)cc2)C(=O)c2c(-c3ccnc(C(F)(F)F)c3)cnn21 [compound 99] | ≥ 2.5 mg/kg | – |
| – | – | – | CNc1cc(-c2cnn3c2C(=O)N(c2ccc(C(F)(F)F)c(Cl)c2)C[C@@H]3C)ccn1 [compound 103] | 0.96 mg/kg | – |
| 3.16e-09 M | 111% | 125.82 °C (dec.) | CNc1cc(-c2cnn3c2C(=O)N(c2ccc(C(F)(F)F)c(OC)n2)C[C@@H]3C)ccn1 [compound 237] | 1.99 mg/kg | – |
| 1.17e-08 M | 104% | – | Cc1cc(-c2cnn3c2C(=O)N(c2ccc(C(F)(F)F)c(F)c2)C[C@@H]3C)ccn1 [compound 10] | 0.79 mg/kg | – |
| 3.63e-09 M | 108% | – | CCNc1cc(-c2cnn3c2C(=O)N(c2ccc(Cl)c(Cl)c2)C[C@@H]3C)ccn1 [compound 257] | ≥ 2.5 mg/kg | – |
| 1.32e-08 M | 106% | 76.8 °C | COc1cc(-c2cnn3c2C(=O)N(c2ccc(C(F)(F)F)c(OC)c2)C[C@@H]3C)ccn1 [compound 180] | ≥ 2.5 mg/kg | – |
| 2.95e-08 M | 103% | 128.9 °C | Cc1cc(-c2cnn3c2C(=O)N(c2ccc(C(F)(F)F)c(C#N)c2)C[C@@H]3C)ccn1 [compound 13] | 7.94 mg/kg | – |
| 2.88e-09 M | 107% | – | Cc1cc(-c2cnn3c2C(=O)N(c2ccc(C(F)(F)F)c(Cl)c2)C[C@@H]3C)cc(C)n1 [compound 43] | 1.26 mg/kg | – |
| 3.72e-09 M | 108% | – | COc1cc(-c2cnn3c2C(=O)N(c2ccc(C(F)(F)F)c(Cl)c2)C[C@@H]3C)ccn1 [compound 104] | ≥ 2.5 mg/kg | – |
| 2.51e-09 M | 102% | 99.8 °C | C[C@H]1CN(c2ccc(C(F)(F)F)cc2)C(=O)c2c(-c3ccnc(N(C)C)c3)cnn21 [compound 166] | 0.5 mg/kg | ≥ 10 mg/kg |
| 1.51e-09 M | 107% | – | CCNc1cc(-c2cnn3c2C(=O)N(c2ccc(C(F)(F)F)c(Cl)c2)C[C@@H]3C)ccn1 [compound 255] | 0.79 mg/kg | – |

| IC50 (human mGlu2 receptor) | Emax (human mGlu2 receptor) | melting point | Compound | ED50 (rats; Route PO) | ED50 (rats; Route SC) |
| --- | --- | --- | --- | --- | --- |
| 6.61e-09 M | 105% | – | COc1cc(-c2cnn3c2C(=O)N(c2ccc(Cl)c(Cl)c2)C[C@@H]3C)ccn1 [compound 142] | 1.99 mg/kg | – |
| 5.01e-09 M | 106% | – | Cc1cc(-c2cnn3c2C(=O)N(c2ccc(Cl)c(Cl)c2)C[C@@H]3C)ccn1 [compound 6] | 0.8 mg/kg | – |
| 1.78e-09 M | 106% | – | Cc1cc(-c2cnn3c2C(=O)N(c2ccc(C(F)(F)F)c(Cl)c2)C[C@@H]3C)ccn1 [compound 3] | 1.99 mg/kg | – |
| 7.24e-09 M | 105% | – | Cc1cc(-c2cnn3c2C(=O)N(c2ccc(SC(F)(F)F)cc2)C[C@@H]3C)ccn1 [compound 236] | > 2.5 mg/kg | – |
| 4.07e-08 M | 102% | 142.4 °C | CCOc1nc(N2C[C@H](C)n3ncc(-c4ccnc(C)c4)c3C2=O)ccc1C(F)(F)F [compound 189, (7S)-5-[6-Ethoxy-5-(trifluoromethyl)-2-pyridyl]-7-methyl-3-(2-methyl-4-pyridyl)-6,7-dihydropyrazolo[1,5-a]pyrazin-4-one] | – | – |
| 2.4e-08 M | 103% | 148 °C | Cc1cc(-c2cnn3c2C(=O)N(c2cc(F)c(C(F)(F)F)c(F)c2)C[C@@H]3C)ccn1 [compound 132] | – | – |
| 8.13e-08 M | 103% | 101.8 °C | C[C@H]1CN(c2ccc(C(F)(F)F)c(C#N)c2)C(=O)c2c(-c3ccncc3)cnn21 [compound 155] | – | – |
| 8.71e-09 M | 104% | 158.9 °C | Cc1cc(-c2cnn3c2C(=O)N(c2ccc(C(F)(F)F)c(C)c2)C[C@@H]3C)cc(C)n1 [compound 157] | – | – |
| 1.29e-08 M | 110% | – | CNc1cc(-c2cnn3c2C(=O)N(c2ccc(C(F)(F)F)cc2)C[C@@H]3C)cc(OC)n1 [compound 242] | > 2.5 mg/kg | – |
| 1.7e-05 M | 94% | 158.8 °C | Cc1cc(-c2cnn3c2C(=O)N(c2ccc(C(F)(F)F)cc2)CC3(C)C)ccn1 [compound 171] | – | – |
| 2.95e-07 M | 108% | > 300 °C | CC(O)c1cc(-c2cnn3c2C(=O)N(c2ccc(Cl)c(Cl)c2)C[C@@H]3C)ccn1 (stereo partly drawn) [compound 111, (7S)-5-(3,4-Dichlorophenyl)-3-[2-(1-hydroxyethyl)-4-pyridyl]-7-methyl-6,7-dihydropyrazolo[1,5-a]pyrazin-4-one] | – | – |
| 1.2e-06 M | 103% | 157.6 °C | C[C@H]1CN(c2ccc(C(F)(F)F)cc2)C(=O)c2c(-c3ccc(C#N)nc3)cnn21 [compound 151] | – | – |
| 6.17e-08 M | 107% | 219.2 °C | Cc1cc(-c2cnn3c2C(=O)N(c2ccc(F)c(C)c2)C[C@@H]3C)ccn1 [compound 21] | – | – |
| 1.45e-08 M | 103% | 162 °C | Cc1cc(N2C[C@H](C)n3ncc(-c4ccncc4)c3C2=O)ccc1C(F)(F)F [compound 153] | – | – |
| 6.46e-09 M | 105% | – | Cc1cc(-c2cnn3c2C(=O)N(c2ccc(Cl)c(Cl)c2)C[C@@H]3C)cc(C)n1 [compound 47] | 1.99 mg/kg | – |
| 2.24e-08 M | 107% | 141.3 °C | CCOc1nc(N2C[C@H](C)n3ncc(-c4ccncc4)c3C2=O)ccc1C(F)(F)F [compound 208] | – | – |
| 1.1e-08 M | 104% | 93 °C | COc1cc(N2C[C@H](C)n3ncc(-c4cc(C)nc(C)c4)c3C2=O)ccc1C(F)(F)F [compound 51] | – | – |
| 1.29e-08 M | 104% | 153.2 °C | C[C@H]1CN(c2ccc(Cl)c(Cl)c2)C(=O)c2c(-c3ccncc3)cnn21 [compound 57] | – | – |
| 6.03e-09 M | 105% | 64.7 °C | Cc1cc(-c2cnn3c2C(=O)N(c2ccc(Cl)c(OC(F)(F)F)c2)C[C@@H]3C)ccn1 [compound 169] | – | – |
